For two molecules, melting point results are on record in US7138546B2, “Compounds and compositions for delivering active agents” (Emisphere Technologies, Inc., priority 2000, dated 2006).

The molecule `O=C(COc1ccccc1O)Nc1cc(Cl)ccc1O` [Compound 1, N-(5-Chloro-2-hydroxyphenyl)-2-(2-hydroxyphenoxy)acetamide] returned a melting point of 203 to 205 °C.

Regarding `CCOCCC(=O)Nc1cc(Cl)ccc1O` [Compound 2, N-(5-Choro-2-hydroxyphenyl)-3-ethoxypropanamide], the melting point lay within 154 to 156 °C.
